B1: PtNTT2(66-575) (Phaeodactylum tricornutum CCAP 1055/1) (protein)
chain: GGSTVAPTTPLATGGALRKVRQAVFPIYGNQEVTKFLLIGSIKFFIILALTLTRDTKDTLIVTQCGAEAIAFLKIYGVLPAATAFIALYSKMSNAMGKKMLFYSTCIPFFTFFGLFDVFIYPNAERLHPSLEAVQAILPGGAASGGMAVLAKIATHWTSALFYVMAEIYSSVSVGLLFWQFANDVVNVDQAKRFYPLFAQMSGLAPVLAGQYVVRFASKAVNFEASMHRLTAAVTFAGIMICIFYQLSSSYVERTESAKPAADNEQSIKPKKKKPKMSMVESGKFLASSQYLRLIAMLVLGYGLSINFTEIMWKSLVKKQYPDPLDYQRFMGNFSSAVGLSTCIVIFFGVHVIRLLGWKVGALATPGIMAILALPFFACILLGLDSPARLEIAVIFGTIQSLLSKTSKYALFDPTTQMAYIPLDDESKVKGKAAIDVLGSRIGKSGGSLIQQGLVFVFGNIINAAPVVGVVYYSVLVAWMSAAGRLSGLFQAQTEMDKADKMEAKTNKEK

How the values were obtained:
PtNTT2(66-575) = molecular target: T1, PtNTT2(66-575) (Phaeodactylum tricornutum, UniProt B7FWL8); assay: inhibition of [α-32P]ATP uptake into E. coli YZ2 cells; format: cell-based; details: read-out: % inhibition at 500 μM
T1 sequence (B7FWL8 66-575): B1 chain

[1] = substrate: Nc1ncnc2c1ncn2[C@@H]1O[C@H](COP(=O)(O)OP(=O)(O)OP(=O)(O)O)[C@@H](O)[C@H]1O; assay: radiolabelled uptake into E. coli YZ2 cells, filter assay; format: cell-based, Phaeodactylum tricornutum; details: whole-cell uptake; labelled compound ([α-32P]ATP)

| Molecule | inhibition at 500 µM (PtNTT2(66-575)) | Km [1] |
| --- | --- | --- |
| Nc1nc2c(ncn2COCCOP(=O)(O)OP(=O)(O)OP(=O)(O)O)c(=O)[nH]1 [ACVTP] | 68.6 ± 5.5% |  |
| Nc1nc2c(ncn2[C@H]2C[C@H](O)[C@@H](COP(=O)(O)OP(=O)(O)OP(=O)(O)O)O2)c(=O)[nH]1 [dGTP] | 55.3 ± 3.6% |  |
| Nc1nc(=O)n([C@H]2C[C@H](O)[C@@H](COP(=O)(O)OP(=O)(O)OP(=O)(O)O)O2)cc1I [5-IdCTP] | 73.6 ± 1.8% |  |
| Nc1ccn([C@@H]2O[C@H](COP(=O)(O)OP(=O)(O)OP(=O)(O)O)[C@@H](O)[C@@H]2O)c(=O)n1 [Ara-CTP] | 81.3 ± 5.2% |  |
| Nc1ccn([C@@H]2O[C@H](COP(=O)(O)OP(=O)(O)OP(=O)(O)O)[C@@H](O)[C@H]2O)c(=O)n1 [CTP] | 70.5 ± 4.9% |  |
| Nc1nc2c(ncn2[C@@H]2O[C@H](COP(=O)(O)OP(=O)(O)OP(=O)(O)O)[C@@H](O)[C@H]2O)c(=O)[nH]1 [GTP] | 60.4 ± 1.4% |  |
| Cc1cn([C@H]2C[C@H](N=[N+]=[N-])[C@@H](COP(=O)(O)OP(=O)(O)OP(=O)(O)O)O2)c(=O)[nH]c1=O [AZTTP] | 56.9 ± 12% |  |
| Nc1nc(=O)n([C@@H]2O[C@H](COP(=O)(O)OP(=O)(O)OP(=O)(O)O)[C@@H](O)[C@H]2O)cc1CO [5-hmCTP] | 76.3 ± 2.9% |  |
| Nc1ccn([C@H]2C[C@H](O)[C@@H](COP(=O)(O)OP(=O)(O)OP(=O)(O)O)O2)c(=O)n1 [dCTP] | 76.3 ± 2.8% |  |
| Nc1nc2c(ncn2[C@@H]2O[C@H](COP(=O)(O)OP(=O)(O)OP(=O)(O)O)[C@@H](O)[C@@H]2O)c(=O)[nH]1 [Ara-GTP] | 47.8 ± 7.9% |  |
| Nc1nc(=O)n([C@@H]2O[C@H](COP(=O)(O)OP(=O)(O)OP(=O)(O)O)[C@@H](O)[C@H]2O)cc1I [5-ICTP] | 96.6 ± 1.3% |  |
| B1 |  | 186.0 ± 21.1 µM |

From PMC5809120 (Journal of the American Chemical Society, 2018)
